Experimental data published in publication PMC7365463, “Oxfendazole mediates macrofilaricidal efficacy against the filarial nematode Litomosoides sigmodontis in vivo and inhibits Onchocerca spec. motility in vitro” (PLoS Neglected Tropical Diseases, 2020).
Where two headings read alike, the source gives them in different places.

Columns and labels:
Litomosoides sigmodontis [1] = assay: Patent L. sigmodontis infection in jirds (adult worms, microfilaremia, embryogenesis); details: jirds, SC 2 mg/kg QD for 5 days
Brugia pahangi [2] = details: cited from earlier work
Brugia pahangi [3] = system: Brugia pahangi; parameters: method as in Devaney 1985 (Ref. 8); details: 50L3, balb/c, SC 10 or 50 mg/kg 5 cons. days, 4 days p.i., necropsy 3-4 weeks p.t.; ref Devaney 1985 (Ref. 8); cited from earlier work
[4] = system: Onchocerca gutturosa adult male worms; assay: O. gutturosa adult worm MTT/formazan viability assay; details: 120 h
Brugia malayi = system: Brugia malayi; parameters: method as in Maeda 1988 (Ref. 14); details: 150-200L3 (SC), jird, IP 20mg/kg 5 cons. days, 9 months p.i., necropsy 5 weeks p.t.; ref Maeda 1988 (Ref. 14); cited from earlier work
[5] = system: Onchocerca gutturosa adult male worms; assay: O. gutturosa adult male worm 5-day motility assay
Brugia pahangi [6] = system: Brugia pahangi; parameters: method as in de Burbure 1986 (Ref. 9); details: 200L3 (SC), Mastomys, food 56-82mg/kg, 7 days p.i., necropsy 177 days p.t., ref de Burbure 1986 (Ref. 9), cited from earlier work
[7] = system: Onchocerca lienalis microfilariae; assay: O. lienalis microfilariae 5-day motility assay; details: 120 h
Brugia pahangi [8] = system: Brugia pahangi; parameters: method as in Reddy 1983 (Ref. 15); details: L3 (SC), Mastomys natalensis, patent phase, necropsy 43 days p.t., ref Reddy 1983 (Ref. 15), cited from earlier work
Litomosoides sigmodontis [9] = system: Litomosoides sigmodontis; parameters: method as in Reddy 1983 (Ref. 15); details: L3 (mite), Mastomys natalensis, patent phase, necropsy 43 days p.t., ref Reddy 1983 (Ref. 15), cited from earlier work

In the case of `COC(=O)Nc1nc2cc(C(=O)c3ccc(F)cc3)ccc2[nH]1` [flubendazole], the “adult worms at necropsy” value (Litomosoides sigmodontis [1]; necropsy 16 weeks post-treatment) is listed as “no adult worms were recovered”, the “clearance of microfilariae from peripheral blood” value (Litomosoides sigmodontis [1]; week 4 after treatment start) is listed as “all microfilariae were cleared” and the “Reduction of worm burden” value (Brugia pahangi [2]; 15Ad (IP), jirds, SC 0.7mg/kg 5 cons. days, ref Denham 1979 (Ref. 4)) is listed as 40%. The “Reduction of worm burden” value (Brugia pahangi [2]; 15Ad (IP), jirds, SC 3.1mg/kg x1, ref Denham 1979 (Ref. 4)) was 23%, the “Reduction of worm burden” value (Brugia pahangi [2]; 15Ad (IP), jirds, SC 5mg/kg 5 cons. days, 4 days p.i., necropsy 5 weeks p.t., ref Surin 1990 (Ref. 11)) was 100% and the “Reduction of worm burden” value (Brugia pahangi [2]; 15Ad (IP), jirds, SC 6.3-12.5 mg/kg x1, ref Denham 1979 (Ref. 4)) was 70-80%. For the same compound, the “Reduction of worm burden” value (Brugia pahangi [2]; 15Ad (IP), jirds, SC 10-50-100mg/ml 5 cons. days, ref Denham 1979 (Ref. 4)) was 96-100%, the “Reduction of worm burden” value (Brugia pahangi [2]; 15Ad (IP), jirds, SC 25-200mg/kg x1, ref Denham 1979 (Ref. 4)) was over 98% and the “Reduction of worm burden” value (Brugia pahangi [2]; 50L3 (IP), jirds, SC 5mg/kg 5 cons. days, 70 days p.i., necropsy 5 weeks p.t., ref Surin 1990 (Ref. 11)) was 98.5%. The “Reduction of worm burden” value (Brugia pahangi [2]; 50L3 (IP), jirds, SC 25mg/kg 5 cons. days, 70 days p.i., necropsy 5 weeks p.t., ref Surin 1990 (Ref. 11)) was 100%, the “Reduction of worm burden” value (Brugia pahangi [2]; 50L3 (IP), jirds, SC 25mg/kg x1, prepatent phase, necropsy 3-9 days p.t., ref Denham 1979 (Ref. 4)) was “no reduction” and the “Reduction of worm burden” value (Brugia pahangi [2]; 50L3 (IP), jirds, SC 25mg/kg x1, prepatent phase, necropsy 12-24 days p.t., ref Denham 1979 (Ref. 4)) was 80%. The “Reduction of worm burden” value (Brugia pahangi [2]; 50L3 (IP), jirds, SC 25mg/kg x1, prepatent phase, necropsy 27-36 days p.t., ref Denham 1979 (Ref. 4)) was 100%, the “Reduction of worm burden” value (Brugia pahangi [2]; prophylactic, 15Ad (IP), jirds, SC 100mg/kg x1, 2,3,4,5 weeks bef. i., necropsy 35 days pi, ref Denham 1980 (Ref. 1)) was 100% and the “Reduction of worm burden” value (Brugia pahangi [2]; prophylactic, 15Ad (IP), jirds, SC 100mg/kg x1, 6,9,12 weeks bef. i., necropsy 35 days pi, ref Denham 1980 (Ref. 1)) was 92-100%. The “Reduction of worm burden” value (Brugia pahangi [2]; prophylactic, 15Ad (IP), jirds, SC 100mg/kg x1, 24 weeks bef. i., necropsy 35 days pi, ref Denham 1980 (Ref. 1)) was 9%, the “Reduction of worm burden” value (Brugia pahangi [2]; prophylactic, 15Ad (IP), jirds, SC 100mg/kg x1, 2 days bef. i., necropsy 35 days pi, ref Denham 1980 (Ref. 1)) was 100% and the “Reduction of worm burden” value (Brugia pahangi [2]; prophylactic, 50L3, jirds, SC 25mg/kg x1, 137 days bef. i., necropsy 9-10 weeks p.t., ref Chusattayanond 1984 (Ref. 2)) was 8%. For the same compound, the “Reduction of worm burden” value (Brugia pahangi [3]) was 100%, the “MTT Reduction (%)” value ([4]; 1.25 x 10^-5 M) was 2% and the “MTT Reduction (%)” value ([4]; 3.1 x 10^-6 M) was 3%. For the same compound, the “MTT Reduction (%)” value ([4]; 5.0 x 10^-5 M) was 20%, the “MTT Reduction (%)” value ([4]; 7.8 x 10^-7 M) was 3% and the “Reduction of worm burden” value (Brugia malayi) was 100%. For the same compound, the “Motility Reduction (%)” value ([5]; 1.25 x 10^-5 M, 24 h) was 10%, the “Motility Reduction (%)” value ([5]; 1.25 x 10^-5 M, 48 h) was 12% and the “Motility Reduction (%)” value ([5]; 1.25 x 10^-5 M, 72 h) was 33%. The “Motility Reduction (%)” value ([5]; 1.25 x 10^-5 M, 96 h) was 44%, the “Motility Reduction (%)” value ([5]; 1.25 x 10^-5 M, 120 h) was 51% and the “Motility Reduction (%)” value ([5]; 3.1 x 10^-6 M, 24 h) was 4%. The “Motility Reduction (%)” value ([5]; 3.1 x 10^-6 M, 48 h) was 5%, the “Motility Reduction (%)” value ([5]; 3.1 x 10^-6 M, 72 h) was 16% and the “Motility Reduction (%)” value ([5]; 3.1 x 10^-6 M, 96 h) was 38%. The “Motility Reduction (%)” value ([5]; 3.1 x 10^-6 M, 120 h) was 40%, the “Motility Reduction (%)” value ([5]; 5.0 x 10^-5 M, 24 h) was 23% and the “Motility Reduction (%)” value ([5]; 5.0 x 10^-5 M, 48 h) was 22%. For the same compound, the “Motility Reduction (%)” value ([5]; 5.0 x 10^-5 M, 72 h) was 36%, the “Motility Reduction (%)” value ([5]; 5.0 x 10^-5 M, 96 h) was 38% and the “Motility Reduction (%)” value ([5]; 5.0 x 10^-5 M, 120 h) was 54%. The “Motility Reduction (%)” value ([5]; 7.8 x 10^-7 M, 24 h) was 6%, the “Motility Reduction (%)” value ([5]; 7.8 x 10^-7 M, 48 h) was 9% and the “Motility Reduction (%)” value ([5]; 7.8 x 10^-7 M, 72 h) was 13%. The “Motility Reduction (%)” value ([5]; 7.8 x 10^-7 M, 96 h) was 33%, the “Motility Reduction (%)” value ([5]; 7.8 x 10^-7 M, 120 h) was 26% and the “Reduction of worm burden” value (Brugia pahangi [6]; 7 days ad.lib.) was 100%. The “Reduction of worm burden” value (Brugia pahangi [6]; 14 days ad. lib.) was 100%, the “activity against microfilariae compared to oxfendazole” value [7] was “even less active” and the “Reduction of worm burden” value (Brugia pahangi [8]; SC 100mg/kg 5 cons. days) was 100%. The “Reduction of worm burden” value (Brugia pahangi [8]; per os 150mg/kg 5 cons. days) was 20%, the “Reduction of worm burden” value (Litomosoides sigmodontis [9]; SC 100mg/kg 5 cons. days) was 100% and the “Reduction of worm burden” value (Litomosoides sigmodontis [9]; per os 150mg/kg 5 cons. days) was 0%.
